From ChEMBL document CHEMBL4819019, “Design, synthesis, antibacterial activity and toxicity of novel quaternary ammonium compounds based on pyridoxine and fatty acids” (Eur J Med Chem, 2021)

Legend:
[1] = tested on: Pseudomonas aeruginosa; experiment: Antibacterial activity against Pseudomonas aeruginosa ATCC 27853 measured after 24 hrs by broth microdilution method; type: functional
[2] = tested on: Micrococcus luteus; experiment: Antibacterial activity against Micrococcus luteus clinical isolate measured after 24 hrs by broth microdilution method; type: functional
[3] = tested on: Staphylococcus aureus; experiment: Antibacterial activity against Staphylococcus aureus ATCC 29213 measured after 24 hrs by broth microdilution method; type: functional
[4] = tested on: Escherichia coli; experiment: Antibacterial activity against Escherichia coli MG 1655 measured after 24 hrs by broth microdilution method; type: functional
[5] = Lipophilicity, logP of the compound; type: physicochemical; conditions: octanol/water
[6] = tested on: Bacillus subtilis; experiment: Antibacterial activity against Bacillus subtilis 168 measured after 24 hrs by broth microdilution method; type: functional
[7] = Genotoxicity in Salmonella typhimurium TA100 assessed as number of revertant by Ames spot test relative to solvent control; type: toxicity; conditions: salmonella enterica subsp. enterica serovar typhimurium
[8] = Genotoxicity in Salmonella typhimurium TA1535 assessed as number of revertant by Ames spot test relative to solvent control; type: toxicity; conditions: salmonella enterica subsp. enterica serovar typhimurium
[9] = Genotoxicity in Salmonella typhimurium TA98 assessed as number of revertant by Ames spot test relative to solvent control; type: toxicity; conditions: salmonella enterica subsp. enterica serovar typhimurium
[10] = Genotoxicity in Salmonella typhimurium TA1537 assessed as number of revertant by Ames spot test relative to solvent control; type: toxicity; conditions: salmonella enterica subsp. enterica serovar typhimurium

Compound | MIC [1] | MIC [2] | MIC [3] | MIC [4] | logP [5] | MIC [6] | Ratio [7] | Ratio [8] | Ratio [9] | Ratio [10]
CCCCCCCCCCCCCC(=O)OCCC[N+](C)(C)Cc1nc(C)c2c(c1CO)COC(CCC)O2.[Cl-] (centres undefined) | > 64 µg/mL | 2 µg/mL | 2 µg/mL | 64 µg/mL | 2.35 | 2 µg/mL | – | – | – | –
CCCCCCCCCCCC(=O)OCC[N+](C)(C)Cc1cnc(C)c2c1COC(C)(C)O2.[Cl-] | 64 µg/mL | 4 µg/mL | 4 µg/mL | 16 µg/mL | 1.25 | 4 µg/mL | – | – | – | –
CCCCCCCCCCCCCCCC(=O)NCC[N+](C)(C)Cc1cnc(C)c2c1COC(C)(C)O2.[Cl-] | 2 µg/mL | 1 µg/mL | 1 µg/mL | 32 µg/mL | 2.93 | 4 µg/mL | – | – | – | –
CCCCCCCCCCCCCCCC(=O)OCCC[N+](C)(C)Cc1cnc(C)c2c1COC(C)(C)O2.[Cl-] | 32 µg/mL | 2 µg/mL | 16 µg/mL | > 64 µg/mL | 3.09 | 8 µg/mL | – | – | – | –
CCCCCCCC[N+](C)(C)Cc1nc(C)c2c(c1CO)COC(C)(C)O2.[Cl-] | > 64 µg/mL | 64 µg/mL | 64 µg/mL | 64 µg/mL | -0.78 | 64 µg/mL | – | – | – | –
CCCCCCCCCCCCCCCCCC(=O)NCC[N+](C)(C)Cc1cnc(C)c2c1COC(C)(CCC)O2.[Cl-] (centres undefined) | > 64 µg/mL | > 64 µg/mL | > 64 µg/mL | > 64 µg/mL | 4.02 | > 64 µg/mL | – | – | – | –
CCCCCCCCCCCC(=O)NCCC[N+](C)(C)Cc1cnc(C)c2c1COC(C)(C)O2.[Cl-] | 64 µg/mL | 16 µg/mL | 8 µg/mL | 64 µg/mL | 0.58 | 8 µg/mL | – | – | – | –
CCCCCCCCCCCCCC(=O)NCCC[N+](C)(C)Cc1cnc(C)c2c1COC(CCCCCCCC)O2.[Cl-] (centres undefined) | > 64 µg/mL | > 64 µg/mL | > 64 µg/mL | > 64 µg/mL | 4.53 | > 64 µg/mL | – | – | – | –
CCCCCCCCCCCCCC(=O)NCC[N+](C)(C)Cc1nc(C)c2c(c1CO)COC(CCC)O2.[Cl-] (centres undefined) | > 64 µg/mL | 4 µg/mL | 2 µg/mL | 64 µg/mL | 1.56 | 2 µg/mL | – | – | – | –
CCCCCCCCCCCCCCCCCC(=O)NCC[N+](C)(C)Cc1cnc(C)c2c1COC(C)(C)O2.[Cl-] | 8 µg/mL | 2 µg/mL | 4 µg/mL | > 64 µg/mL | 3.19 | 8 µg/mL | – | – | – | –
CCCCCCCCCC(C)C1OCc2c(C[N+](C)(C)CCCNC(=O)CCCCC)cnc(C)c2O1.[Cl-] (centres undefined) | > 64 µg/mL | > 64 µg/mL | > 64 µg/mL | > 64 µg/mL | 2.34 | > 64 µg/mL | – | – | – | –
CCCCCCCCCCCC(=O)NCC[N+](C)(C)Cc1cnc(C)c2c1COC(C)(C)O2.[Cl-] | 32 µg/mL | 4 µg/mL | 1 µg/mL | 32 µg/mL | 0.52 | 8 µg/mL | – | – | – | –
CCCCCCCCCCCCCCCC(=O)NCC[N+](C)(C)Cc1cnc(C)c2c1COC(C)(CCC)O2.[Cl-] (centres undefined) | > 64 µg/mL | 16 µg/mL | 8 µg/mL | > 64 µg/mL | 3.13 | 16 µg/mL | – | – | – | –
CCCCCCCCCCCCCCCC(=O)NCCC[N+](C)(C)Cc1cnc(C)c2c1COC(C)(CCC)O2.[Cl-] (centres undefined) | > 64 µg/mL | 2 µg/mL | 2 µg/mL | 2 µg/mL | 3.19 | 4 µg/mL | – | – | – | –
CCCCCC(=O)NCCC[N+](C)(C)Cc1cnc(C)c2c1COC(CCC)O2.[Cl-] (centres undefined) | > 64 µg/mL | > 64 µg/mL | > 64 µg/mL | > 64 µg/mL | -1.25 | > 64 µg/mL | – | – | – | –
CCCCCCCCCCCCCCCCCC(=O)NCCC[N+](C)(C)Cc1cnc(C)c2c1COC(C)(CCC)O2.[Cl-] (centres undefined) | > 64 µg/mL | > 64 µg/mL | > 64 µg/mL | > 64 µg/mL | 4.08 | > 64 µg/mL | – | – | – | –
CCCCCCCCCCCCCC(=O)OCCC[N+](C)(C)Cc1cnc(C)c2c1COC(C)(C)O2.[Cl-] | 16 µg/mL | 2 µg/mL | 2 µg/mL | 16 µg/mL | 2.2 | 2 µg/mL | – | – | – | –
COS(C)(=O)=O [METHANESULFONIC ACID METHYL ESTER] | – | – | – | – | – | – | 2.7 | 30 | – | –
CCCCCCCCCCCCCCCCCC[N+](C)(C)Cc1cnc(C)c2c1COC(C)(C)O2.[Cl-] | > 64 µg/mL | 16 µg/mL | 4 µg/mL | > 64 µg/mL | 4.35 | > 64 µg/mL | – | – | – | –

Compound | MIC [1] | MIC [2] | MIC [3] | MIC [4] | logP [5] | MIC [6] | Ratio [7] | Ratio [8] | Ratio [9] | Ratio [10]
CCCCCCCCCCCCCC(=O)NCCC[N+](C)(C)Cc1cnc(C)c2c1COC(CCCCC)O2.[Cl-] (centres undefined) | > 64 µg/mL | 2 µg/mL | 2 µg/mL | > 64 µg/mL | 3.19 | 1 µg/mL | – | – | – | –
CCCCCCCCCCCCCCCC(=O)NCCC[N+](C)(C)Cc1cnc(C)c2c1COC(C)(C)O2.[Cl-] | 8 µg/mL | 2 µg/mL | 4 µg/mL | > 64 µg/mL | 2.36 | 2 µg/mL | – | – | – | –
CCCCCCCCCCCCCCCC(=O)OCCC[N+](C)(C)Cc1cnc(C)c2c1COC(CCC)O2.[Cl-] (centres undefined) | 32 µg/mL | 8 µg/mL | 32 µg/mL | > 64 µg/mL | 3.92 | 32 µg/mL | – | – | – | –
CCCCCCCCCCCC(=O)OCC[N+](C)(C)Cc1cnc(C)c2c1COC(CCC)O2.[Cl-] (centres undefined) | 32 µg/mL | 2 µg/mL | 1 µg/mL | 4 µg/mL | 2.08 | 2 µg/mL | – | – | – | –
CCCCCCCCCCCCCC(=O)OCCC[N+](C)(C)Cc1cnc(C)c2c1COC(CCC)O2.[Cl-] (centres undefined) | 4 µg/mL | 1 µg/mL | 2 µg/mL | > 64 µg/mL | 3.03 | 2 µg/mL | – | – | – | –
CCCCCCCCCCCC(=O)OCCC[N+](C)(C)Cc1cnc(C)c2c1COC(C)(C)O2.[Cl-] | 32 µg/mL | 2 µg/mL | 2 µg/mL | 8 µg/mL | 1.31 | 1 µg/mL | – | – | – | –
CCCCCCCCCCCCCC(=O)OCCC[N+](C)(C)Cc1cnc(C)c2c1COC(CCCCCCCC)O2.[Cl-] (centres undefined) | > 64 µg/mL | > 64 µg/mL | > 64 µg/mL | > 64 µg/mL | 5.25 | > 64 µg/mL | – | – | – | –
CCCCCCCCCCCCCCCC(=O)OCC[N+](C)(C)Cc1cnc(C)c2c1COC(CCC)O2.[Cl-] (centres undefined) | 8 µg/mL | 1 µg/mL | 2 µg/mL | > 64 µg/mL | 3.86 | 4 µg/mL | – | – | – | –
CCCCCCCCCCCCCCCC(=O)OCC[N+](C)(C)Cc1cnc(C)c2c1COC(C)(C)O2.[Cl-] | 4 µg/mL | 0.5 µg/mL | 0.5 µg/mL | > 64 µg/mL | 3.03 | 1 µg/mL | – | – | – | –
CCCCCCCCCCCCCC(=O)NCCC[N+](C)(C)Cc1cnc(C)c2c1COC(C)(CCC)O2.[Cl-] (centres undefined) | > 64 µg/mL | 2 µg/mL | 2 µg/mL | 2 µg/mL | 2.3 | 2 µg/mL | – | – | – | –
CCCCCCCCCCCCCC(=O)OCCC[N+](C)(C)Cc1nc(C)c2c(c1CO)COC(C)(C)O2.[Cl-] | > 64 µg/mL | 2 µg/mL | 1 µg/mL | 64 µg/mL | 1.52 | 0.5 µg/mL | – | – | – | –
CCCCCC(=O)NCCC[N+](C)(C)Cc1cnc(C)c2c1COC(C)(C)O2.[Cl-] | > 64 µg/mL | > 64 µg/mL | > 64 µg/mL | > 64 µg/mL | -2.09 | > 64 µg/mL | – | – | – | –
CCCCCCCCCCCCCC(=O)NCCC[N+](C)(C)Cc1nc(C)c2c(c1CO)COC(C)(C)O2.[Cl-] | > 64 µg/mL | 1 µg/mL | 2 µg/mL | 16 µg/mL | 0.79 | 2 µg/mL | – | – | – | –
CCCCCCCCCCCC(=O)NCCC[N+](C)(C)Cc1cnc(C)c2c1COC(C)(CCC)O2.[Cl-] (centres undefined) | 32 µg/mL | 4 µg/mL | 1 µg/mL | 8 µg/mL | 1.41 | 4 µg/mL | – | – | – | –
CCCCCCCCCCCCCC(=O)OCCC[N+](C)(C)Cc1cnc(C)c2c1COC(CCCCC)O2.[Cl-] (centres undefined) | > 64 µg/mL | 8 µg/mL | 8 µg/mL | > 64 µg/mL | 3.92 | 4 µg/mL | – | – | – | –
Nc1ccc([N+](=O)[O-])cc1N | – | – | – | – | – | – | – | – | 4.2 | 3.7
CCCCCCCCCCCCCC(=O)OCC[N+](C)(C)Cc1nc(C)c2c(c1CO)COC(CCC)O2.[Cl-] (centres undefined) | > 64 µg/mL | 2 µg/mL | 2 µg/mL | 64 µg/mL | 2.29 | 2 µg/mL | – | – | – | –
CCCCCCCCCCCCCC(=O)NCCC[N+](C)(C)Cc1nc(C)c2c(c1CO)COC(CCC)O2.[Cl-] (centres undefined) | > 64 µg/mL | 1 µg/mL | 2 µg/mL | 64 µg/mL | 1.62 | 1 µg/mL | – | – | – | –
